# Reference: patent publication US20180200233A1, “COMPOSITIONS FOR PREVENTING CANCERS ASSOCIATED WITH HUMAN PAPILLOMA VIRUSES” (Loma Linda University, priority 2015, published 2018)
# How the values were obtained:
# in vitro = format: cell-based, human; conditions: human
# Procedure: (§1) FIGS. 3A-E are graphs providing data regarding resistance of HPV^+ SiHa cells to TRAIL-, cisplatin- and […] apoptosis, in the presence and absence of small molecules as disclosed herein. (FIG. 3A) HPV^+ SiHa cells are resistant to TRAIL-induced apoptosis as compared to the human osteosarcoma cell line U2OS. Cells (2×10^4 cells per well) were seeded into a 96-well plate, allowed to incubate overnight, and then treated with indicated concentration of TRAIL in the presence of cycloheximide (5 μg/ml). The viability of cells was measured after overnight incubation using the MTT assay; the viability of cells untreated with TRAIL was set at 100% for each group. (FIG. 3B) The indicated concentrations of three small molecules were added to SiHa cells, and an MTT assay was preformed after overnight incubation. The viability of cells untreated with small molecules was set as 100%. (FIG. 3C) The indicated concentrations of myricetin or spinacine were added 4 h prior to TRAIL (100 ng/ml) in the presence of cycloheximide (5 μg/ml) and incubated at 37° C. overnight. The viability of cells untreated with small molecules was set at 100%. (FIG. 3D and FIG. 3E) SiHa cells (2×10^4 cells per well) were seeded into a 96-well plate and allowed to incubate overnight. 100 μM of myricetin and 50 μM of spinacine were added 4 h prior to either (FIG. 3D) doxorubicin or (FIG. 3E) cisplatin. Cell viability was measured after overnight incubation using the MTT assay, and the viability of cells untreated with either myricetin or spinacine was set at 100%. Experiments were performed in triplicate, and error bars indicate the standard deviation.
# (§2) The molecules were then tested to determine whether those that block E6/caspase 8 binding in vitro could also act in the context of a cell. SiHa cells are an HPV^+ cell line, derived from a cervical carcinoma, which serves as a commonly used model for HPV-associated malignancies. To determine whether HPV^+ SiHa cells are resistant to TRAIL-induced apoptosis, SiHa cells were treated with TRAIL and cell viability was assessed. TRAIL-sensitive, HPV^− U2OS cells served as a positive control. […] Myricetin and/or spinacine were tested to determine if they could sensitize these HPV^+ cells to TRAIL-induced apoptosis. […] Table 2 lists and compares the concentrations of the three tested compounds required to induce death in 50% of SiHa cells in the presence or absence of TRAIL.
# The extracellular domain of human TRAIL was cloned into a pTriEx expression plasmid containing N-terminal Hisx6 tag. His-TRAIL was expressed in the E. coli BL-21 pLys strain and purified as previously described. Doxorubicin and cisplatin were purchased from Sigma. His-TRAIL, doxorubicin, and cisplatin were diluted in PBS to the desired concentration before using. To measure cell survival following treatment with TRAIL, cisplatin and doxorubicin, SiHa (2×10^4/well), C33A (1×10^4/well), and HNSCC cells (2×10^4/well) were seeded into 96-well plates and allowed to adhere overnight. Small molecules at the desired concentration were added and incubated at 37° C. for 4 h. As indicated, TRAIL, cisplatin or doxorubicin was then added. […] All experiments were repeated at least three times (three biological replicates, carried out on different days), with each experimental group measured in triplicate within each of these individual experiments. […]
# SiHa cells = assay: MTT cell viability, SiHa cells, TRAIL-induced apoptosis; format: cell-based, human; conditions: for increase in cell death in the presence than in the absence of TRAIL: from the EC50 values of Table 2; for concentration required to inhibit binding and to sensitize cells: cell sensitization experiments
# Procedure: as §1
# FIGS. 5A-B are graphs showing myricetin and spinacine (5) re-sensitized HPV^+, but not HPV^−, cells to treatment with TRAIL. SiHa (2×10^4 cells per well) and C33A cells (1×10^4 cells per well) were seeded into a 96-well plate and allowed to incubate overnight, then cells were pre-treated in the presence or absence of myricetin (100 μM) (FIG. 5A) or spinacine (50 μM) (FIG. 5B) for 4 h. The indicated concentration of TRAIL, along with cycloheximide (5 μg/ml) was added and cells were allowed to incubate overnight. Cell viability was measured by MTT assay, and the viability of cells untreated with TRAIL was set at 100%. Experiments were performed in triplicate, and error bars indicate the standard deviation.
# as §2
# The extracellular domain of human TRAIL was cloned into a pTriEx expression plasmid containing N-terminal Hisx6 tag. His-TRAIL was expressed in the E. coli BL-21 pLys strain and purified as previously described. Doxorubicin and cisplatin were purchased from Sigma. His-TRAIL, doxorubicin, and cisplatin were diluted in PBS to the desired concentration before using. To measure cell survival following treatment with TRAIL, cisplatin and doxorubicin, SiHa (2×10^4/well), C33A (1×10^4/well), and HNSCC cells (2×10^4/well) were seeded into 96-well plates and allowed to adhere overnight. Small molecules at the desired concentration were added and incubated at 37° C. for 4 h. As indicated, TRAIL, cisplatin or doxorubicin was then added. […]
SMILES,EC50 (in vitro),"EC50 for TRAIL-induced apoptosis (SiHa cells; SiHa cells, compound added 4 h prior to TRAIL 100 ng/ml + cycloheximide 5 μg/ml, overnight, MTT)",increase in cell death in the presence than in the absence of TRAIL (SiHa cells; SiHa cells),concentration required to inhibit binding and to sensitize cells (SiHa cells),"sensitivity of SiHa cells to TRAIL after pre-treatment (in words) (SiHa cells; 100 μM myricetin or 50 μM spinacine for 4 h, TRAIL up through 100 ng/ml)"
"OCn1cnc2ccccc21 [Compound 3, 1H-benzimidazole-1-methanol]",285 µM,No sensitization,–,–,–
"O=C(O)C1Cc2[nH]cnc2CN1 (stereo not drawn) [Compound 5, 4,5,6,7-Tetrahydro-1H-imidazo(4,5-c)pyridine-6-carboxylic acid]",268 µM,–,8.6 fold,50 µM,–
"O=c1c(O)c(-c2cc(O)c(O)c(O)c2)oc2cc(O)cc(O)c12 [Myricetin, reference compound]",539 µM,–,3.5 fold,100 µM,sensitivity increased dramatically
